This is an account of results in patent US12729231B2, “Fusion protein having triple activity and use thereof” (SHANGHAI MINWEI BIOTECHNOLOGY CO., LTD, priority 2023, dated 2026).

For one series, the system named is DIO mice. In words: body weight reduction by multiple subcutaneous injections in DIO mice. The series is classed as in vivo. The following applies: 30 nmol/kg subcutaneous twice a week for 5 weeks, mean of 6 mice. Here is the method: 7-week-old C57BL/6Nju mice were fed with a high-fat diet (of about 20% protein and about 60% fat) for 12 weeks for modeling. Feeding conditions: 12 hours of light and 12 hours of darkness cycle every day, ad libitum feeding, temperature 20-25° C., relative humidity 40-70%, ventilation frequency of 10-15 times/hour. According to body weight, water consumption, and food intake, the mice were randomly divided into groups the day before administration. […] Subcutaneous injection treatment was administered twice a week for 5 consecutive weeks, for a total of 10 administrations. After the administration, the body weight, OGTT, body fat ratio, blood lipids and liver function of the mice were measured. The data are shown as mean±standard deviation, and statistically analyzed by One-Way ANOVA.

The conditions of series [1]: cynomolgus macaques; cited from earlier work.

Consider Tirzepatide, for which, in the series on DIO mice (DIO mice), the ALT was determined as 19.000 U/L, the AST is recorded as 54.683 U/L, the “Blood glucose (fasting)” value worked out at 7.2 mmol/L and the “LDL-C (plasma low-density lipoprotein cholesterol)” value amounted to 0.423 mmol/L. The “TC (plasma total cholesterol)” value in the series on DIO mice (DIO mice) is given as 3.923 mmol/L. The “% Change in weight since inception” value with DIO mice (DIO obese mice) is −22.55%.

B1: natural FGF21: Fibroblast growth factor 21, wild type, SEQ ID NO 1 (protein)
chain: HPIPDSSPLLQFGGQVRQRYLYTDDAQQTEAHLEIREDGTVGGAADQSPESLLQLKALKPGVIQILGVKTSRFLCQRPDGALYGSLHFDPEACSFRELLLEDGYNVYQSEAHGLPLHLPGNKSPHRDPAPRGPARFLPLPGLPPALPEPPGILAPQPPDVGSSDPLSMVGPSQGRSPSYAS
modifications: Wild type FGF21
In the case of B1, in series [1], the half-life in vivo is 2 to 3 h.

B2: FGF21 L98R, P171G, A180E: FGF21 with the L98R, P171G, and A180E mutations, background literature variant (protein, UniProt Q9NSA1 29-209, looked up, variant L98R P171G A180E)
Fibroblast growth factor 21: HPIPDSSPLLQFGGQVRQRYLYTDDAQQTEAHLEIREDGTVGGAADQSPESLLQLKALKPGVIQILGVKTSRFLCQRPDGALYGSLHFDPEACSFRERLLEDGYNVYQSEAHGLPLHLPGNKSPHRDPAPRGPARFLPLPGLPPALPEPPGILAPQPPDVGSSDPLSMVGGSQGRSPSYES
Take B2: the half-life in vivo result in series [1] was “about 70 hours”.
